Among the data in PubChem BioAssay (NCI) are TGI values, retold here.

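All cell lines were grown in 96-well plates and treated with compound for 48 hours. TGI: total growth inhibition.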 Bounds are passed on as bounds.

Test systems include HT29 colon; SK-MEL-2 melanoma; NCI-H23 lung; SF-268 CNS; SW-620 colon; LOX IMVI melanoma; MDA-N; MALME-3M melanoma; SNB-75 CNS; HCT-15 colon.
What all share (test): NCI-60 cell line screen, 48 h

`O=C(c1cccc2cc(O)ccc12)c1cn(CCN2CCOCC2)c2ccccc12`: the TGI with HT29 colon is 37.1 µM; in the test with SK-MEL-2 melanoma it was 25 µM; in the test on NCI-H23 lung, above 100 µM; in the test with SF-268 CNS it was above 100 µM; with SW-620 colon, above 100 µM; in the test on LOX IMVI melanoma, 39.1 µM. In addition, the TGI came to 58.3 µM in the test with MDA-N and 56.3 µM with MALME-3M melanoma.
On to `O=c1oc2ccccc2n1CCCn1c(=O)oc2ccccc21`, for which the TGI in the test on HT29 colon, in the test with SK-MEL-2 melanoma, in the test with NCI-H23 lung, in the test on SNB-75 CNS, in the test on SF-268 CNS and in the test on SW-620 colon was above 100 µM each time. Moreover, the TGI in the test on HCT-15 colon, in the test on LOX IMVI melanoma and in the test on MALME-3M melanoma was above 100 µM throughout.
On to `COc1ccc2c(c1)C=C(C(C)(C)C)NS2(=O)=O`, for which the TGI with HT29 colon, in the test with SK-MEL-2 melanoma, in the test with NCI-H23 lung, in the test with SNB-75 CNS, in the test with SF-268 CNS and with SW-620 colon was above 100 µM throughout. In addition, the TGI in the test with HCT-15 colon, in the test on LOX IMVI melanoma and with MALME-3M melanoma was above 100 µM in each case.
Take `CC(c1ccccc1)C(O)S(=O)(=O)O` (centres undefined): the TGI in the test on HT29 colon, in the test on SK-MEL-2 melanoma, in the test with NCI-H23 lung, in the test with SNB-75 CNS, in the test on SF-268 CNS and with SW-620 colon was above 100 µM throughout. The TGI with HCT-15 colon, in the test with LOX IMVI melanoma and in the test on MALME-3M melanoma was above 100 µM in each case.
For `COc1cc(OC2OC(CO)C(O)C(O)C2O)c2c(c1)O[C@@H]1[C@H](O)Oc3cc(OC)c(OC)cc3[C@]1(O)C2=O` (some centres undefined), the TGI in the test with HT29 colon, in the test on SK-MEL-2 melanoma, with NCI-H23 lung, in the test on SNB-75 CNS, in the test on SF-268 CNS and in the test with SW-620 colon was above 25 µM in each case. Also, the TGI with HCT-15 colon, in the test on LOX IMVI melanoma and with MDA-N was above 25 µM throughout.
As for `CCOC(=O)/C=C/c1c[nH]c(=O)[nH]c1=O`, the TGI with HT29 colon, with SK-MEL-2 melanoma, in the test with NCI-H23 lung, in the test with SNB-75 CNS, in the test with SF-268 CNS and in the test on SW-620 colon was above 75 µM throughout. The TGI in the test on HCT-15 colon, in the test on LOX IMVI melanoma and in the test on MALME-3M melanoma was above 75 µM throughout.
Take `COc1cc(OC)cc(C(=O)Cc2c(C(=O)c3ccccc3)c3ccccc3n2C(=O)c2ccccc2)c1`: the TGI was above 100 µM with HT29 colon; 65.9 µM in the test with SK-MEL-2 melanoma; above 100 µM in the test with NCI-H23 lung; above 100 µM in the test on SNB-75 CNS; above 100 µM in the test on SF-268 CNS; above 100 µM with SW-620 colon. Moreover, the TGI with HCT-15 colon, in the test on LOX IMVI melanoma and in the test on MALME-3M melanoma was above 100 µM in each case.
With `COc1ccc2c(c1)OC1c3ccccc3OCC21` (centres undefined), the TGI with HT29 colon is 93.9 µM; with SK-MEL-2 melanoma it was above 100 µM; in the test with NCI-H23 lung it was above 100 µM; in the test with SNB-75 CNS, above 100 µM; with SF-268 CNS, above 100 µM; in the test on SW-620 colon, above 100 µM. Besides, the TGI in the test with HCT-15 colon, in the test on LOX IMVI melanoma and in the test with MDA-N was above 100 µM throughout.
With `CC(=O)OCCCCn1cnc2c(Cl)nc(Nc3ccccc3)nc21`, the TGI in the test with HT29 colon, in the test on NCI-H23 lung, in the test with SW-620 colon, in the test on HCT-15 colon, in the test on LOX IMVI melanoma and in the test on MDA-N was above 100 µM in each case. The molecule also returned a TGI with MALME-3M melanoma above 100 µM.
Turning to `Cn1c(O)c(C=Nc2ccc(Cl)cc2Cl)c(=O)n(C)c1=O`, the TGI with HT29 colon, with SK-MEL-2 melanoma, in the test with NCI-H23 lung, in the test with SNB-75 CNS, with SF-268 CNS and in the test on SW-620 colon was above 100 µM throughout. The TGI in the test with HCT-15 colon, in the test on LOX IMVI melanoma and in the test with MALME-3M melanoma was above 100 µM throughout.
Turning to `CC(C)C1=CC23CCC4C(C)(C(=O)O)CCCC4(C)C2CC1C1C(=O)N(c2cccc(N4C(=O)C5C6CC7C8(C)CCCC(C)(C(=O)O)C8CCC7(C=C6C(C)C)C5C4=O)c2)C(=O)C13` (centres undefined), the TGI in the test on HT29 colon came to 10.8 µM; in the test with SK-MEL-2 melanoma it was 29.9 µM; in the test with NCI-H23 lung, 12.2 µM; with SF-268 CNS, 27.8 µM; with SW-620 colon it was 31.4 µM; in the test on HCT-15 colon it was 26.9 µM. For the same molecule, in the test on MALME-3M melanoma, the TGI came to 32.9 µM.
Regarding `ClCCc1ccccc1CC1=NCCc2ccccc21`, the TGI in the test with HT29 colon was 46.3 µM; with SK-MEL-2 melanoma it was 39.1 µM; in the test on NCI-H23 lung it was 74.5 µM; with SNB-75 CNS, 96.8 µM; with SF-268 CNS it was above 100 µM; in the test with SW-620 colon it was above 100 µM. The TGI in the test on HCT-15 colon and with LOX IMVI melanoma was above 100 µM each time.
Consider `Nc1ncnc2c1cnn2COCC(O)CO` (centres undefined), for which the TGI in the test with HT29 colon, with SK-MEL-2 melanoma, with NCI-H23 lung, in the test with SF-268 CNS, in the test with SW-620 colon and in the test with HCT-15 colon was above 100 µM each time. The TGI with LOX IMVI melanoma, in the test on MDA-N and with MALME-3M melanoma was above 100 µM each time.
For `CCOC(=O)C1=C(C)N(C2OC(COC(C)=O)C(OC(C)=O)C(OC(C)=O)C2OC(C)=O)C(=O)NC1c1ccccc1` (centres undefined), the TGI in the test on HT29 colon, in the test with SK-MEL-2 melanoma, with NCI-H23 lung, with SNB-75 CNS, in the test on SF-268 CNS and with SW-620 colon was above 100 µM each time. The TGI with HCT-15 colon, in the test on LOX IMVI melanoma and in the test with MALME-3M melanoma was above 100 µM throughout.
In the case of `CC(C)C[C@H](NC(=O)CCc1cccc2ccccc12)B(O)O`, the TGI was 6.27 µM in the test with HT29 colon; 6.74 µM in the test on SK-MEL-2 melanoma; 7.81 µM with NCI-H23 lung; above 22.6 µM in the test with SNB-75 CNS; 10.1 µM with SF-268 CNS; 3.26 µM in the test with SW-620 colon. Further, the values for the TGI with HCT-15 colon, in the test with LOX IMVI melanoma and in the test with MALME-3M melanoma were 9.01 µM, 1.77 µM and 5.23 µM, respectively.
